Experimental data taken from US8658646B2, “Pyrrolopyrazine kinase inhibitors” (Hoffmann-LaRoche Inc., priority 2011, dated 2014).

Target: T1, recombinant human SYK360-635 (Homo sapiens, UniProt P43405)
T1 construct: made in house
Experiment: Determination of IC50 of Spleen Tyrosine Kinase (SYK) inhibition, 33P ATP filtration assay
Format: biochemical
Conditions: SYK aa 360-635 0.5 nM; ATP 20 μM, peptide 5 μM, 0.1% BSA; read-out: SYK_ENZYME_FILTRATION/v1, BSA

Row | SMILES | IC50 [nM]
1 | CC(C)(C)NC(=O)c1c[nH]c2ncc(-c3nn(CCCN4CCC(F)(F)C4)c4ccc(OC(F)F)cc34)nc12 [Example I-343, 2-{5-Difluoromethoxy-1-[3-(3,3-difluoro-pyrrolidin-1-yl)-propyl]-1H-indazol-3-yl}-5H-pyrrolo[2,3-b]pyrazine-7-carboxylic acid tert-butylamide] | 37
2 | Cn1nc(-c2cnc3[nH]cc(C(=O)NC(C)(C)C)c3n2)c2cc(S(C)(=O)=O)ccc21 [Example I-461, N-tert-Butyl-2-(1-methyl-5-(methylsulfonyl)-1H-indazol-3-yl)-5H-pyrrolo[3,2-b]pyrazine-7-carboxamide] | 144
3 | Cn1nc(-c2cnc3[nH]cc(C(=O)NC(C)(C)CCO)c3n2)c2ccc(F)cc21 [Example I-400, 2-(6-Fluoro-1-methyl-1H-indazol-3-yl)-5H-pyrrolo[2,3-b]pyrazine-7-carboxylic acid (3-hydroxy-1,1-dimethyl-propyl)-amide] | 8.57
4 | CCn1nc(-c2cnc3[nH]cc(C(=O)NC(C)C)c3n2)c2ccc(Cl)cc21 [Example I-307, 2-(6-Chloro-1-ethyl-1H-indazol-3-yl)-5H-pyrrolo[2,3-b]pyrazine-7-carboxylic acid isopropylamide] | 32.6
5 | Cc1ccc2c(-c3cnc4[nH]cc(C(=O)NC(C)(C)CO)c4n3)nn(CCCN3CCOCC3)c2c1 [Example I-438, 2-[6-Methyl-1-(3-morpholin-4-yl-propyl)-1H-indazol-3-yl]-5H-pyrrolo[2,3-b]pyrazine-7-carboxylic acid (2-hydroxy-1,1-dimethyl-ethyl)-amide] | 27.4

More lines, in order of falling IC50, values ahead:

Row | IC50 [nM] | SMILES
6 | 4190 | Cn1c2c(c(-c3cnc4[nH]cc(C(=O)NC(C)(C)C)c4n3)[n+]1[O-])CCCC2 [Example I-294, 2-(1-Methyl-2-oxy-4,5,6,7-tetrahydro-1H-indazol-3-yl)-5H-pyrrolo[2,3-b]pyrazine-7-carboxylic acid tert-butylamide]
7 | 34.6 | Cc1nn(-c2cnc3[nH]cc(C(=O)NC(C)(C)CO)c3n2)c2ccc(Cl)cc12 [Example I-319, 2-(5-Chloro-3-methyl-indazol-1-yl)-5H-pyrrolo[2,3-b]pyrazine-7 carboxylic acid (2-hydroxy-1,1-dimethyl-ethyl)-amide]
8 | 18.5 | Cn1nc(-c2cnc3[nH]cc(C(=O)NC(C)(C)C4CC4)c3n2)c2ccc(Cl)cc21 [Example I-401, 2-(6-Chloro-1-methyl-1H-indazol-3-yl)-5H-pyrrolo[2,3-b]pyrazine-7-carboxylic acid (1-cyclopropyl-1-methyl-ethyl)-amide]
9 | 14.3 | CC(C)(C)NC(=O)c1c[nH]c2ncc(-c3nn(CC(=O)N4CCOCC4)c4cc(F)ccc34)nc12 [Example I-251, 2-[6-Fluoro-1-(2-morpholin-4-yl-2-oxo-ethyl)-1H-indazol-3-yl]-5H-pyrrolo[2,3-b]pyrazine-7-carboxylic acid tert-butylamide]
10 | 12.5 | Cc1ccc2c(-c3cnc4[nH]cc(C(=O)NC5(CO)CC5)c4n3)nn(C)c2c1 [Example I-429, 2-(1,6-Dimethyl-1H-indazol-3-yl)-5H-pyrrolo[2,3-b]pyrazine-7-carboxylic acid (1-hydroxymethyl-cyclopropyl)-amide]
11 | 9.7 | Cc1ccc2c(-c3cnc4[nH]cc(C(=O)NC(C)(C)CO)c4n3)nn(CC(=O)N3CCOCC3)c2c1 [Example I-439, 2-[6-Methyl-1-(2-morpholin-4-yl-2-oxo-ethyl)-1H-indazol-3-yl]-5H-pyrrolo[2,3-b]pyrazine-7-carboxylic acid (2-hydroxy-1,1-dimethyl-ethyl)-amide]
12 | 8.88 | COc1nn(-c2cnc3[nH]cc(C(=O)NC(C)(C)CO)c3n2)c2ccccc12 [Example I-344, 2-(3-Methoxy-indazol-1-yl)-5H-pyrrolo[2,3-b]pyrazine-7-carboxylic acid (2-hydroxy-1,1-dimethyl-ethyl)-amide]
13 | 5.8 | Cn1nc(-c2cnc3[nH]cc(C(=O)NC(C)(C)C#N)c3n2)c2ccc(Cl)cc21 [Example I-407, 2-(6-Chloro-1-methyl-1H-indazol-3-yl)-5H-pyrrolo[2,3-b]pyrazine-7-carboxylic acid (cyano-dimethyl-methyl)-amide]
